Laboratory results reported in US8952042B2, “FXR (NR1H4) binding and activity modulating compounds” (Phenex Pharmaceuticals AG, priority 2009, dated 2015).

Tests used:
[1] = biological target: T1, FXR ligand binding domain (Homo sapiens, UniProt Q96RI1); assay: Mammalian One Hybrid (M1H) Gal4 reporter assay in HEK293 cells; assay type: cell-based; settings: potency range
T1 construct: expressed in transfected cells; host or cells: HEK293 cells (DSMZ), transient transfection of pCMV-BD-FXR-LBD
T1 sequence (Q96RI1 187-472 isoform Q96RI1-2): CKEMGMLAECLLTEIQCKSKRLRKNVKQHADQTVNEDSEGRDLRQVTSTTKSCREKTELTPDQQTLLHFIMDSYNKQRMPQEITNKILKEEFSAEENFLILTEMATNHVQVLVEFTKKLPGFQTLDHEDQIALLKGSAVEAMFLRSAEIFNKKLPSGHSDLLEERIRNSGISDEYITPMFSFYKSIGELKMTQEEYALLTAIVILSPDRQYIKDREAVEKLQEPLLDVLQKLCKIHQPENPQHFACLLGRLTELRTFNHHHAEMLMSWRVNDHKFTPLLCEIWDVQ
Procedure: Determination of a ligand mediated Gal4 promoter driven transactivation to quantify ligand binding mediated activation of FXR was performed as follows: The cDNA part encoding the FXR ligand binding domain was cloned into vector pCMV-BD (Stratagene) as a fusion to the yeast GAL4 DNA binding domain under the control of the CMV promoter. The amino acid boundaries of the ligand binding domain were amino acids 187-472 of Database entry NM_005123 (RefSeq). The plasmid pFR-Luc (Stratagene) was used as the reporter plasmid, containing a synthetic promoter with five tandem repeats of the yeast GAL4 binding sites, driving the expression of the Photinus pyralis (American firefly) luciferase gene as the reporter gene. In order to improve experimental accuracy the plasmid pRL-CMV (Promega) was cotransfected. pRL-CMV contains the constitutive CMV promoter, controlling the expression of the Renilla reniformis luciferase. All Gal4 reporter gene assays were done in HEK293 cells (obtained from DSMZ, Braunschweig, Germany) grown in MEM with L-Glutamine and Earle's BSS supplemented with 10% fetal bovine serum, 0.1 mM nonessential amino acids, 1 mM sodium pyruvate, and 100 units Penicillin/[…] per mL at 37° C. in 5% CO2. Medium and supplements were obtained from Invitrogen. For the assay, […] were plated per well in 96 well plates in 100 μL per well MEM without Phenol Red and L-Glutamine and with Earle's BSS supplemented with 10% charcoal/dextran treated FBS (HyClone, South Logan, Utah), 0.1 mM nonessential amino acids, 2 mM glutamine, 1 mM sodium pyruvate, and 100 units Penicillin/[…] per mL, incubated at 37° C. in 5% CO2. The following day the cells were >90% confluence. Medium was removed and cells were transiently transfected using 20 μL per well of a OptiMEM—polyethylene-imine-based transfection-reagent (OptiMEM, Invitrogen; Polyethyleneimine, Aldrich Cat No. 40, 827-7) including the three plasmids described above. MEM with the same composition as used for plating cells was added 2-4 h after addition of transfection mixture. Then compound stocks, prediluted in MEM were added (final vehicle concentration not exceeding 0.1%). Cells were incubated for additional 16 h before firefly and renilla luciferase activities were measured sequentially in the same cell extract using a Dual-Light-Luciferase-Assay system (Dyer et al., Anal. Biochem. 2000, 282, 158-161). All experiments were done in triplicates.

[2] = biological target: T2, human FXR alpha ligand binding domain (Homo sapiens, UniProt Q96RI1); assay: FRET activity assay (ligand mediated cofactor peptide interaction, LANCE); assay type: biochemical; settings: potency range
T2 construct: made in house; host or cells: E. coli BL21(DE3), vector pDEST15
T2 sequence (Q96RI1 187-472 isoform Q96RI1-2): T1 sequence (Q96RI1 187-472 isoform Q96RI1-2)
Procedure: Determination of a ligand mediated cofactor peptide interaction to quantify ligand binding to the nuclear receptor FXR was performed as follows: Preparation of human FXR alpha ligand binding domain: The human FXRalpha LBD was expressed in E. coli strain BL21(DE3) as an N-terminally GST tagged fusion protein. The DNA encoding the FXR ligand binding domain was cloned into vector pDEST15 (Invitrogen). Expression was under control of an IPTG inducible T7 promoter. The amino acid boundaries of the ligand binding domain were amino acids 187-472 of Database entry NM_005123 (RefSeq). Expression and purification of the FXR-LBD: An overnight preculture of a transformed E. coli strain was diluted 1:20 in LB-Ampicillin medium and grown at 30° C. to an optical density of OD600=0.4-0.6. Gene expression was then induced by addition of 0.5 mM IPTG. Cells were incubated an additional 6 h at 30° C., 180 rpm. Cells were collected by centrifugation (7000×g, 7 min, room temperature). Per liter of original cell culture, cells were resuspended in 10 mL lysis buffer (50 mM Glucose, 50 mM Tris pH 7.9, 1 mM EDTA and 4 mg/mL lysozyme) and left on ice for 30 min. Cells were then subjected to sonication and cell debris removed via centrifugation (22000×g, 30 min, 4° C.). Per 10 mL of supernatant 0.5 mL prewashed Glutathione 4B sepharose slurry (Qiagen) was added and the suspension kept slowly rotating for 1 h at 4° C. Glutathione 4B sepharose beads were pelleted by centrifugation (2000×g, 15 sec, 4° C.) and washed twice in wash buffer (25 mM Tris, 50 mM KCl, 4 mM MgCl2 and 1M NaCl). The pellet was resuspended in 3 mL elution buffer per liter of original culture (elution buffer: 20 mM Tris, 60 mM KCl, 5 mM MgCl2 and 80 mM glutathione added immediately prior to use as powder). The suspension was left rotating for 15 min at 4° C., the beads pelleted and eluted again with half the volume of elution buffer than the first time. The eluates were pooled and dialysed overnight in 20 mM Hepes buffer (pH 7.5) containing 60 mM KCl, 5 mM MgCl2 as well as 1 mM dithiothreitol and 10% (v/v) glycerol. The protein was analysed by SDS-Page.
The method measures the ability of putative ligands to modulate the interaction between the purified bacterial expressed FXR ligand binding domain (LBD) and a synthetic biotinylated peptide based on residues 676-700 of SRC-1 (LCD2, 676-700). […] The ligand binding domain (LBD) of FXR was expressed as fusion protein with GST in BL-21 cells using the vector pDEST15. Cells were lysed by sonication, and the fusion proteins purified over glutathione sepharose (Pharmacia) according to the manufacturers instructions. For screening of compounds for their influence on the FXR-peptide interaction, the Perkin Elmer LANCE technology was applied. This method relies on the binding dependent energy transfer from a donor to an acceptor fluorophor attached to the binding partner of interest. For ease of handling and reduction of background from compound fluorescence LANCE technology makes use of generic fluorophore labels and time resolved detection Assays were done in a final volume of 25 μL in a 384 well plate, in a Tris-based buffer (20 mM Tris-HCl pH 7.5; 60 mM KCl, 5 mM MgCl2; 35 ng/μL BSA), containing 20-60 ng/well recombinantly expressed FXR-LBD fused to GST, 200-600 nM N-terminally biotinylated peptide, representing SRC1 aminoacids 676-700, 200 ng/well Streptavidin-xIAPC conjugate (Prozyme) and 6-10 ng/well Eu W1024—antiGST (Perkin Elmer). DMSO content of the samples was kept at 1%. After generation of the assay mix and diluting the potentially FXR modulating ligands, the assay was equilibrated for one hour in the dark at room temperature in FIA-plates black 384 well (Greiner). The LANCE signal was detected by a Perkin Elmer VICTOR2V™ Multilabel Counter. The results were visualized by plotting the ratio between the emitted light at 665 and 615 nm.

[3] = UV stability, irradiation at 366 nm on a DMSO thin film, LCMS; assay type: physicochemical; settings: 366 nm emission, 250 μM in DMSO thin film, FIG. 3m
Procedure: A different, more rapid experimental setup was used to investigate a broader set of compounds in comparison to GW4064. The substances were dissolved in reagent grade DMSO (99.5%, Karl Roth) at a concentration of 250 μM. DMSO solution was spread over a silica glass slide to a depth of approximately 2 mm and irradiated using a UV lamp set to 366 nm emission (Benda Instruments, Wiesloch Germany) using an 8 W tube set approximately 2.5 cm from the target materials. The solution was sampled prior to irradiation (T=0 min) and at various intervals thereafter. Stocks and samples were maintained in foil wrapped tubes out of direct light. Samples were injected (2 μL) directly onto a LCMS System for analysis without any further preparation.

With `O=C(O)c1ccc(C2CC2c2ccc(OCc3c(-c4c(Cl)cccc4Cl)noc3C3CC3)cc2Cl)cc1` (single isomer, unassigned; (-)) [Example 12c, (−)-4-(2-(2-chloro-4-((5-cyclopropyl-3-(2,6-dichlorophenyl)isoxazol-4-yl)methoxy)phenyl)cyclopropyl)benzoic acid] the EC50 [1] was 0.01 to 0.1 µM, the EC50 [2] was 0.01 to 0.1 µM and the “photostability compared to GW4064” value [3] was “higher photostability”.
With `CS(=O)(=O)NC(=O)c1ccc(C2CC2c2ccc(OCc3c(-c4c(Cl)cccc4Cl)noc3C3CC3)cc2Cl)cc1` (centres unmarked) [Example 14, 4-(2-(2-chloro-4-((5-cyclopropyl-3-(2,6-dichlorophenyl)isoxazol-4-yl)methoxy)phenyl)cyclopropyl)-N-(methylsulfonyl)benzamide] the EC50 [1] was 0.01 to 0.1 µM, the EC50 [2] was > 0.1 µM and the “photostability compared to GW4064” value [3] was “higher photostability”.
For `Clc1cc(OCc2c(-c3c(Cl)cccc3Cl)noc2C2CC2)ccc1C1CC1c1ccc(-c2nnn[nH]2)cc1` (centres unmarked) [Example 16, 4-((4-(2-(4-(1H-tetrazol-5-yl)phenyl)cyclopropyl)-3-chlorophenoxy)methyl)-5-cyclopropyl-3-(2,6-dichlorophenyl)isoxazole], the EC50 [1] was 0.01 to 0.1 µM, the EC50 [2] was > 0.1 µM and the “photostability compared to GW4064” value [3] was “higher photostability”.
In the case of `CC(C)n1nc(C(=O)O)cc1C1CC1c1ccc(OCc2c(-c3c(Cl)cccc3Cl)noc2C2CC2)cc1Cl` (centres unmarked) [Example 20, 5-(2-(2-chloro-4-((5-cyclopropyl-3-(2,6-dichlorophenyl)isoxazol-4-yl)methoxy)phenyl)cyclopropyl)-1-isopropyl-1H-pyrazole-3-carboxylic acid], the EC50 [1] is reported as < 0.01 µM, the EC50 [2] is reported as < 0.01 µM and the “photostability compared to GW4064” value [3] is reported as “higher photostability”.
With `CC(C)n1nc(C(=O)O)c2ccc(C3CC3c3ccc(OCc4c(-c5c(Cl)cccc5Cl)noc4C4CC4)cc3Cl)cc21` (centres unmarked) [Example 21, 6-(2-(2-chloro-4-((5-cyclopropyl-3-(2,6-dichlorophenyl)isoxazol-4-yl)methoxy)phenyl)cyclopropyl)-1-isopropyl-1H-indazole-3-carboxylic acid] the EC50 [1] was < 0.01 µM and the EC50 [2] was < 0.01 µM.
With `Cc1cc(C2CC2c2ccc(OCc3c(-c4c(Cl)cccc4Cl)noc3C3CC3)cc2Cl)cc(C)c1C(=O)O` (centres unmarked) [Example 23, 4-(2-(2-chloro-4-((5-cyclopropyl-3-(2,6-dichlorophenyl)isoxazol-4-yl)methoxy)phenyl)cyclopropyl)-2,6-dimethylbenzoic acid] the EC50 [1] was < 0.01 µM and the EC50 [2] was 0.01 to 0.1 µM.
In the case of `O=C(O)c1ccc(C2CC2c2ccc(OCc3c(-c4ccccc4OC(F)(F)F)noc3C3CC3)cc2Cl)cc1` (centres unmarked) [Example 24], the EC50 [1] is reported as > 0.1 µM and the EC50 [2] is reported as > 0.1 µM.
For `O=C(O)CNC(=O)c1ccc(C2CC2c2ccc(OCc3c(-c4c(Cl)cccc4Cl)noc3C3CC3)cc2Cl)cc1` (centres unmarked) [Example 28, 2-(4-(2-(2-chloro-4-((5-cyclopropyl-3-(2,6-dichlorophenyl)isoxazol-4-yl)methoxy)phenyl)cyclopropyl)benzamido)acetic acid], the EC50 [1] was > 0.1 µM and the EC50 [2] was > 0.1 µM.
